In US6136347A, “Flavor-masked pharmaceutical compositions” (Bayer Aktiengesellschaft, priority 1992, dated 2000):
Where a name gives a salt, the structure may show the parent alone.

Experiment: in vitro release (dissolution) of active ingredient from microcapsules in strongly acidic (pH 1) and weakly acidic (pH 4.5) medium
Assay type: physicochemical
Settings: for release of active ingredient from microcapsules (in words): strongly acidic and weakly acidic medium (pH 1 and 4.5)
Text: FIG. 1 is a graph depicting percent release as a function of time of an active ingredient from microcapsules prepared by spray solidification in carnauba wax.
FIGS. 2a and 2b are two graphs depicting percent release as a function of time of an active ingredient in, respectively, the hydrate and anhydrate forms.
FIGS. 3a and 3b are two graphs depicting percent release as a function of time of an active ingredient in, respectively, the hydrate and anhydrate forms.
FIGS. 4a and 4b are two graphs depicting percent release as a function of time of an active ingredient in, respectively, the hydrate and anhydrate forms.
FIGS. 5a and 5b are two graphs depicting percent release as a function of time of an active ingredient in, respectively, the hydrate and anhydrate forms.

SMILES | release of active ingredient from microcapsules (in words) | release of active ingredient from wax-embedded microcapsules (in words) (embedded by method of EP-A-273,890 (carnauba wax, beeswax, ethylcellulose), FIG. 1, spray solidification in carnauba wax) | release of active ingredient from microcapsules (in words) (listed as ciprofloxacin betaine)
O=C(O)c1cn(C2CC2)c2cc(N3CCNCC3)c(F)cc2c1=O [ciprofloxacin HCl] | delayed |  | 
O=C(O)c1cn(C2CC2)c2cc(N3CCNCC3)c(F)cc2c1=O [ciprofloxacin] |  | does not lead, however, to the required rapid release of active ingredient | a rapid release of active ingredient is guaranteed
